Laboratory results from patent US5885987A, “Phenylene derivatives” (Kowa Co., Ltd., priority 1996, dated 1999).

Legend:
H1 receptor = target: T1, H1 receptor (Cavia porcellus, UniProt P31389); experiment: H1 receptor binding inhibition test ([^3 H]mepyramin, guinea pig cerebromembranous protein); conditions: for Kd: read-out: H1 receptor, dissociation constant KD; for inhibition at 100 µM: a: 100 μM
T1 construct: guinea pig cerebromembranous protein; from tissue; host or cells: guinea pig cerebral (brain) membranes
Procedure: 1) H1 Receptor Binding Inhibition Test
An ice-cooled phosphate buffer was added to terminate the reaction, followed by immediate filtration through a Wattman CF/C filter. The filter was washed twice with 20 ml aliquots of the ice-cooled buffer. The radioactivity of the residue was measured by a liquid scintillation counter. From a measurement value obtained without the addition of the test compound and measurements values obtained upon addition of the test compound at various concentrations, the dose-response of the inhibitory action of the test compound was measured and the 50% inhibitory concentration (IC50) was determined. Using the Cheng-Prusoff formula, a dissociation constant was calculated from the IC50. In a binding assay, 10^-4 M R(-)dimethindene was used for the measurement of a nonspecific binding.

LTD4 receptor = target: T2, LTD4 receptor (Cavia porcellus, UniProt Q2NNR5); experiment: LTD4 receptor binding inhibition test ([^3 H]leukotriene D4, guinea pig pulmomembranous protein); conditions: for Kd: read-out: LTD4 receptor, dissociation constant KD; for inhibition at 10 µM: b: 10 μM, read-out: LTD4 receptor (%), inhibition rate
T2 construct: guinea pig pulmomembranous protein; from tissue; host or cells: guinea pig lung membranes
T2 sequence (Q2NNR5 1-340): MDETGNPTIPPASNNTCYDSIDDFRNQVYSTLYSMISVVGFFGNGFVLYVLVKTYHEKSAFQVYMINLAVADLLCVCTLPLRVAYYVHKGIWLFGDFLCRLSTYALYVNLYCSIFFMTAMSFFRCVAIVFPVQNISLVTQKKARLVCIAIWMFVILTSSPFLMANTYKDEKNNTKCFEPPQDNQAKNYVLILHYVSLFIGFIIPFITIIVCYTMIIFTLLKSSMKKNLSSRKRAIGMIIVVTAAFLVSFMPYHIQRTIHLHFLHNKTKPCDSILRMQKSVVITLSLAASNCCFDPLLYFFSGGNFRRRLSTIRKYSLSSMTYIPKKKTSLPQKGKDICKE
Procedure: 2) LTD4 Receptor Binding Inhibition Test
An ice-cooled tris hydrochloride/sodium chloride buffer (10 mM/100 mM, pH 7.5) was added to terminate the reaction, followed by immediate filtration through a Wattman CF/C filter. The filter was washed twice with 20 ml aliguots of the ice-cooled buffer. The radioactivity of the residue was measured by a liquid scintillation counter. […] In a binding assay, 2 μM leukotriene D4 was used for the measurement of a nonspecific binding.

[1] = read-out: H1 receptor (%), inhibition rate

T1 sequence (P31389 whole entry): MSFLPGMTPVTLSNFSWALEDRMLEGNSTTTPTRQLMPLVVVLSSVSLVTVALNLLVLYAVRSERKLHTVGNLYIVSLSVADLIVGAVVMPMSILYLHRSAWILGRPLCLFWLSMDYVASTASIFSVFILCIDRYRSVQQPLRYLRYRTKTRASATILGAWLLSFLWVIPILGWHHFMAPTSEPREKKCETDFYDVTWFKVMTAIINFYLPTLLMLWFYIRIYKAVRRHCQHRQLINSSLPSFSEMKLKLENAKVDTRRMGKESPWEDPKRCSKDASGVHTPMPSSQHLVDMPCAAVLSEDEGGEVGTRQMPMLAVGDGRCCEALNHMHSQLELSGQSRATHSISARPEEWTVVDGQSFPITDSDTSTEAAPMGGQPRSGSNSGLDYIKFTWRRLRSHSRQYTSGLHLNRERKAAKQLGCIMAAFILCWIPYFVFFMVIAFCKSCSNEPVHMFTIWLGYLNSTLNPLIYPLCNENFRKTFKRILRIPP

Kd (LTD4 receptor) | inhibition at 100 µM (H1 receptor; [1]) | Compound | also measured
0.115 µM |  | O=C1NCCCc2cc(OCc3ccc(OCc4ccc5ccccc5n4)cc3)ccc21 [Example 85, 7-[4-(2-quinolinylmethoxy)benzyloxy]-2,3,4,5-tetrahydro-1H-benz[c]azepin-1-one] | Kd (H1 receptor): 53.1 µM
 |  | O=C1CCc2ccc(OCc3cccc(OCc4nc5ccccc5s4)c3)cc2N1 [Example 41, 7-[3-(2-benzothiazolylmethoxy)benzyloxy]-1,2,3,4-tetrahydroquinolin-2-one] | Kd (H1 receptor): 128 µM; inhibition at 10 µM (LTD4 receptor): 34%
0.016 µM | 38% | Cc1ccc(OC(=O)c2cccc(OCc3ccc4ccccc4n3)c2)c2cc(C#N)c(=O)[nH]c12 [Example 53, 3-cyano-8-methyl-5-[3-(2-quinolinylmethoxy)benzoyloxy]-1,2-dihydroquinolin-2-one] | 
0.129 µM | 41% | Cc1ccc(OC(=O)c2cccc(OCc3ccc4ccccc4n3)c2)c2c1NC(=O)CC2 [Example 54, 8-Methyl-5-[3-(2-quinolinylmethoxy)benzoyloxy]-1,2,3,4-tetrahydroquinolin-2-one] | 
0.608 µM |  | O=C1CSc2c(NCc3cccc(OCc4ccc5ccccc5n4)c3)cccc2N1 [Example 95, 8-[3-(2-quinolinylmethoxy)benzylamino]-3,4-dihydro-2H-1,4-benzothiazin-3-one] | inhibition at 10 µM (H1 receptor; b: 10 μM, read-out: H1 receptor (%), inhibition rate): 33%
 |  | O=C1CSc2cc(N=Cc3ccc(OCc4ccc5ccccc5n4)cc3)ccc2N1 [Example 92, 7-[4-(2-quinolinylmethoxy)benzylidenamino]-3,4-dihydro-2H-1,4-benzothiazin-3-one] | Kd (H1 receptor): 0.12 µM; inhibition at 10 µM (LTD4 receptor): 0%
 | 36% | O=C1CS(=O)(=O)c2cc(OCc3cccc(OCc4ccc5ccc(Cl)cc5n4)c3)ccc2N1 [Example 75] | LTD4 receptor (%), inhibition rate (LTD4 receptor; concentration not given): 0%
0.022 µM | 47% | O=C1CCSc2cc(OCc3cccc(OCc4ccc5ccccc5n4)c3)ccc2N1 [Example 11, 8-[3-(2-Quinolinylmethoxy)benzyloxy]-2,3,4,5-tetrahydro-1,5-benzothiazepin-4-one] | 
0.129 µM |  | O=C1CCCc2cc(OCc3ccc(OCc4ccc5ccccc5n4)cc3)ccc2N1 [Example 25, 7-[4-(2-Quinolinylmethoxy)benzyloxy]-2,3,4,5-tetrahydro-1H-benzo[b]azepin-2-one] | Kd (H1 receptor): 57.8 µM
 | 28% | CC1(C)C(=O)Nc2c(OC(=O)c3cccc(OCc4ccc5ccccc5n4)c3)cccc21 [Example 61, 3,3-Dimethyl-7-[3-(2-quinolinylmethoxy)benzoyloxyl]2,3-dihydro-1H-indol-2-one] | inhibition at 10 µM (LTD4 receptor): 27%
 | 40% | CCOCCn1c(COc2ccc(COc3ccc(C)c4c3C(C)(C)C(=O)N4)cc2)nc2ccccc21 [Example 45, 4-[4-(N-ethoxylethylbenzimidazol-2-yl-methoxy)benzyloxy]-3,3,7-trimethyl-2,3-dihydro-1H-indol-2-one] | inhibition at 10 µM (LTD4 receptor): 32%
0.223 µM | 38% | CC1(C)C(=O)Nc2cc(OC(=O)c3cccc(OCc4ccc5ccccc5n4)c3)ccc21 [Example 60, 3,3-Dimethyl-6-[3-(2-quinolinylmethoxy)benzoyloxy]-2,3-dihydro-1H-indol-2-one] | 
3.1 µM | 34% | CCCCCCc1cc(OCc2ccc(OCc3ccc4ccccc4n3)cc2)cc2c1C(C)(C)C(=O)N2 [Example 29, 3,3-Dimethyl-4-(n-hexyl)-6-(4-(2-quinolinylmethoxy)benzyloxy]-2,3-dihydro-1H-indol-2-one] | 
0.303 µM | 47% | Cn1c(COc2ccc(COc3ccc4c(c3)SCC(=O)N4)cc2)nc2ccccc21 [Example 38, 7-(4-(N-methylbenzimidazol-2-yl-methoxy)benzyloxy]-3,4-dihydro-2H-1,4-benzothiazin-3-one] | 
0.204 µM | 28% | Cc1ccc(OCc2cccc(OCc3nc4ccccc4n3C)c2)c2c1NC(=O)C2(C)C [Example 37, 4-[3-(N-methylbenzimidazol-2-yl-methoxy)benzyloxy)-3,3,7-trimethyl-2,3-hydro-1H-indol-2-one] | 
